Results: patent publication US8883765B2, “Anti-cytomegalovirus activity of artemisinin-derived dimers” (The John Hopkins University, priority 2009, dated 2014)
Where two headings read alike, the source gives them in different places.

What was measured:
[1] = system: pp 28-luciferase expressing CMV (Towne); experiment: microbe, parasite or virus in culture; assay type: cell-based, human CMV; conditions: for inhibition of CMV replication: different batches and passages of HFF, and HEL cells
Text: A recombinant virus expressing luciferase reporter gene under the control of UL99 (pp 28) late promoter was generated by insertion of the reporter gene between the US9 and US10 ORFs in the Towne genome. […] Ahn J H, Hayward G S. Disruption of PML-associated nuclear bodies by IE1 correlates with efficient early stages of viral gene expression and DNA replication in human cytomegalovirus infection. Virology. 2000; 274:39-55.
(§1) Towne-GFP, Towne-luciferase, and SB viruses were used in these assays. HFF or HEL were grown to subconfluent monolayers and infected with the CMV viruses at MOI 0.1 to 3. […] J Mol Med. 2002; 80:233-242. The concentration of each compound was calculated and adjusted by volume such that it was constant throughout the experiment. Following 90 minute incubation, media was replaced with fresh media containing the drug used. Infected and treated cells were incubated at 37° C. in a 5% CO2 atmosphere for 3-10 days depending on the virus and the anti-viral assay. The recombinant luciferase-expressing virus was incubated for 72 hours, the GFP virus was incubated for 5 days, and the clinical isolate for 10 days. All experiments were subsequently repeated with compounds added to wells just after viral inoculation.

[2] = system: CMV clinical isolates; conditions: 11.1 μM; cited from earlier work
[3] = system: Human Foreskin Fibroblasts (HFF); experiment: Cellular cytotoxicity, CellTiter-Glo Luminescent Cell Viability Assay; conditions: drug concentration that leads to 50% cellular cytotoxicity; mean and SD, at least five experiments in triplicates
Experimental: (§2) Cellular cytotoxicity was determined using CellTiter-Glo® Luminescent Cell Viability Assay (Promega, Madison, Wis.). The assay determines the number of viable cells in culture based on quantification of the ATP present.
(§3) For EC50 and CC50 reported values represent the mean and SD of data derived from at least five independent experiments performed in triplicates.

[4] = system: Human Foreskin Fibroblasts (HFF)
Experimental: as §2, §3

[5] = system: CMV IE1 protein expression; experiment: Western blot for CMV immediate early protein IE1 (and GFP); assay type: cell-based, human CMV; design: expression of IE1 and GFP: dose or concentration left out as unconfirmed; conditions: for expression of IE1 and GFP: Towne-GFP, artemisinin; for IE1 expression: clinical isolate SB, MOI=1
Experimental: Monoclonal antibodies to CMV immediate early proteins IE-1 and IE-2 (MAb810) and to cellular β-actin were purchased from Millipore (Billerica, Mass.). Confluent cells were infected with CMV in the presence of artemisinin compounds. At the indicated times cells were harvested in sample buffer (RIPA buffer, Tris 50 mM, Nacl 150 mM, SDS 0.1%, Na Deoxycholate 0.5%, NP40 1%, and protease inhibitor cocktail), boiled and loaded onto SDS-PAGE. Proteins were separated by electrophoresis and transferred to nitrocellulose membrane. After blocking, blots were probed with primary antibody (1:3,000) overnight at 4° C. in phosphate-buffered saline, and Tween. After washing 3 times, blots were probed with HRP-conjugated anti-mouse (Sigma), 1:5,000 for 1 hour at room temperature. Blots were washed three times in phosphate-buffered saline/Tween, and then developed by enhanced chemiluminescence according to manufacturer protocol.
The expression of CMV immediate early (IE) protein was tested by western blot to determine whether artemisinins' inhibition of CMV replication occurs early in the virus life cycle. […] Further evidence for the early effect of artemisinins on IE1 protein expression was obtained with the clinical isolate (SB, FIG. 5b). […] Stinski M F. Sequence of protein synthesis in cells infected by human cytomegalovirus: early and late virus-induced polypeptides. J Virol. 1978; 26:686-701.

[6] = system: GFP-tagged CMV (Towne-GFP); experiment: GFP-tagged CMV replication in pretreated HFF; assay type: cell-based, human CMV; conditions: pretreatment of HFF with different concentrations; data not shown
Experimental: The CMV strains used for infections were the highly-passaged Towne virus, and a clinical isolate obtained from the urine of a neonate with congenital CMV infection (SB) and passaged once in tissue culture. […] Initial experiments were performed using a recombinant human CMV-green fluorescent protein (GFP) virus, derived from Towne strain. […] J Virol.
as §1

[7] = system: recombinant luciferase-expressing CMV; experiment: Plaque reduction assay in human embryonic lung cells (HEL); assay type: cell-based, human CMV; conditions: 10 μM, luciferase virus
Experimental: For plaque reduction assay, human embryonic lung cells were seeded into six-well plates and incubated at 37° C. one day prior to infection with the recombinant luciferase-expressing CMV. […] The virus was diluted to a desired concentration which gave 50-60 plaques per well. Medium was aspirated from the wells, and 0.2 ml of virus suspension was added to each well in triplicates. Plates were incubated for 90 minutes with shaking every 10 min, thereafter drugs were added and a methylcellulose overlay applied to each well. After incubation for 10 days, cells were stained with crystal violet. The stain was aspirated, wells were washed with phosphate-buffered saline, and plaques were counted.

[8] = system: Toxoplasmosis (Toxoplasma gondii); experiment: Anti-toxoplasmosis activity of supernatants of CMV infected cells; assay type: cell-based; conditions: supernatants of CMV infected cells at 3-5 days post infection
Experimental: To confirm that the difference in anti-CMV activity between monomers and dimers was not a result of instability of the monomers in tissue culture, the anti-toxoplasmosis activity of these compounds was determined in the supernatants of CMV infected cells at 3-5 days post infection. […] Antimicrob Agents Chemother. 2006; 50:4206-4208.

C[C@H]1[C@H](OC(=O)CCC(=O)O)O[C@@H]2O[C@@]3(C)CC[C@H]4[C@H](C)CC[C@@H]1[C@@]24OO3 [Artesunate (2d), Artesunate]
EC50 ([1]; Human betaherpesvirus 5): 18.5 ± 5.2 µM | in-vitro inhibition of clinical isolates [2]: 50-80% | CC50 [3]: 77.5 ± 14.4 µM

C[C@H]1[C@@H](CC(COP(=O)(Oc2ccccc2)Oc2ccccc2)C[C@H]2O[C@@H]3O[C@@]4(C)CC[C@H]5[C@H](C)CC[C@@H]([C@H]2C)[C@@]35OO4)O[C@@H]2O[C@@]3(C)CC[C@H]4[C@H](C)CC[C@@H]1[C@@]24OO3 (stereo partly drawn) [Dimer isobu-OP(O)(OPh)2]
rank as CMV inhibitor among eight representative dimers ([1]; FIGS. 7 and 8): most potent | selectivity index ([1]; eight representative dimers, FIGS. 7 and 8): > 1000

C[C@H]1[C@@H](CCC(=O)Nc2ccc(F)cc2)O[C@@H]2OC3(C)CC[C@H]4[C@H](C)CC[C@@H]1[C@@]24OO3 [Artefanilide (3), Artefanilide]
EC50 ([1]; Table 1, 50% virus inhibition, mean and SD, at least five experiments in triplicates, read-out: EC50): 8.1 ± 2.2 µM | CC50 [4]: 44.9 ± 3.4 µM

C[C@@H]1CC[C@H]2[C@@H](C)C(=O)O[C@@H]3O[C@@]4(C)CC[C@@H]1[C@]32OO4 [Artemisinin (1), Artemisinin]
expression of IE1 and GFP ([5]; MOI of 0.1): undetectable | expression of IE1 and GFP ([5]; MOI of 0.5): decreased | CMV replication [6]: dose-dependent reduction

Nc1nc(O)c2ncn(COC(CO)CO)c2n1 [GCV, Ganciclovir]
CMV inhibition compared with the four monomers ([1]; 10 μM, FIG. 2): more potent | reduction in plaque formation [7]: 80% | IE1 expression ([5]; 10 μM): not affected

C[C@H]1[C@@H](CC(C[C@H]2O[C@@H]3O[C@@]4(C)CC[C@H]5[C@H](C)CC[C@@H]([C@H]2C)[C@@]35OO4)CS(=O)(=O)c2ccc(COC(=O)N(C)C)cc2)O[C@@H]2O[C@@]3(C)CC[C@H]4[C@H](C)CC[C@@H]1[C@@]24OO3 (stereo partly drawn) [Dimer sulfone carbamate (6)]
inhibition of CMV replication [1]: dramatic inhibition

C[C@H]1[C@@H](CC(CO)C[C@H]2O[C@@H]3O[C@@]4(C)CC[C@H]5[C@H](C)CC[C@@H]([C@H]2C)[C@@]35OO4)O[C@@H]2O[C@@]3(C)CC[C@H]4[C@H](C)CC[C@@H]1[C@@]24OO3 (stereo partly drawn) [Dimer primary alcohol (4)]
inhibition of CMV replication [1]: dramatic inhibition | EC50 [8]: 0.4 ± 0.15 µM | time post infection at which inhibition of IE1 expression was observed (as early as) ([5]; SB, MOI=3, prior to onset of DNA replication): 12 h | IE1 expression ([5]; 1-μM, 24 and 48 hr): significantly reduced
